Key:
Type in all cases: biochemical
TRKB = TRKB (Homo sapiens, UniProt Q16620); assay: Kinome profiling TRKB; settings: read-out: Inhibitory activity TRKB; for inhibition at 0.1 µM: 100 nM
Experimental: (§1) . The kinome-wide selectivity was determined following the methods previously reported by Mohedas et al., ACS Chem Biol 2013, 8, 1291-1302 and Sanvitale et al., PLoS One 2013, 8, e62721.

HIPK1 = HIPK1 (Homo sapiens, UniProt Q86Z02); assay: Kinome profiling HIPK1; settings: read-out: Inhibitory activity HIPK1; for inhibition at 0.1 µM: 100 nM
Experimental: as §1

BLK = BLK (Homo sapiens, UniProt P51451); assay: Kinome profiling BLK; settings: read-out: Inhibitory activity BLK; for inhibition at 0.1 µM: 100 nM
Experimental: as §1

PAR-1Bα = PAR-1Bα (Homo sapiens, UniProt Q7KZI7); assay: Kinome profiling PAR-1Bα; settings: read-out: Inhibitory activity PAR-1Bα; for inhibition at 0.1 µM: 100 nM
Experimental: as §1

TRKA = TRKA (Homo sapiens, UniProt P04629); assay: Kinome profiling TRKA; settings: read-out: Inhibitory activity TRKA; for inhibition at 0.1 µM: 100 nM
Experimental: as §1

EGFR = EGFR (Homo sapiens, UniProt P00533); assay: Kinome profiling EGFR; settings: read-out: Inhibitory activity EGFR; for inhibition at 0.1 µM: 100 nM
Experimental: as §1

TIE2 = TIE2 (Homo sapiens, UniProt Q02763); assay: Kinome profiling TIE2; settings: read-out: Inhibitory activity TIE2; for inhibition at 0.1 µM: 100 nM
Experimental: as §1

MARK3 = MARK3 (Homo sapiens, UniProt P27448); assay: Kinome profiling MARK3; settings: read-out: Inhibitory activity MARK3; for inhibition at 0.1 µM: 100 nM
Experimental: as §1

PYK2 = PYK2 (Homo sapiens, UniProt Q14289); assay: Kinome profiling PYK2; settings: read-out: Inhibitory activity PYK2; for inhibition at 0.1 µM: 100 nM
Experimental: as §1

DYRK2 = target: T1, DYRK2 (Homo sapiens, UniProt Q92630); assay: Kinome profiling DYRK2; settings: read-out: Inhibitory activity DYRK2; for inhibition at 0.1 µM: 100 nM
T1 sequence (Q92630 1-601): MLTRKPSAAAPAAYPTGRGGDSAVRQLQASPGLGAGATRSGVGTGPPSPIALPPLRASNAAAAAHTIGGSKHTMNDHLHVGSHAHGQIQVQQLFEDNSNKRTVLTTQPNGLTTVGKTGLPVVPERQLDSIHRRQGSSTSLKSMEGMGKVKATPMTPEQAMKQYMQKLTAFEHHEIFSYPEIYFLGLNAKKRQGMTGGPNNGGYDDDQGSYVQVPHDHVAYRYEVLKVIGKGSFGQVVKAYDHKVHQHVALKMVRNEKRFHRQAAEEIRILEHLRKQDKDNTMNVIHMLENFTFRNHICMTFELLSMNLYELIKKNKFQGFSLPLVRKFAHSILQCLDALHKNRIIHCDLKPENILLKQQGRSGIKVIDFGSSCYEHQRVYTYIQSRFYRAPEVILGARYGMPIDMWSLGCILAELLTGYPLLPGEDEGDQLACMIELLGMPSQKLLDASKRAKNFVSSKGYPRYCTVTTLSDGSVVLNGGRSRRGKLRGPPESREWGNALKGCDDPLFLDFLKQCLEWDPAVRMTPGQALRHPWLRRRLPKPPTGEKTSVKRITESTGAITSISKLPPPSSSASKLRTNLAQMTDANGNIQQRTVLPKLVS
Experimental: as §1

PAK3 = PAK3 (Homo sapiens, UniProt O75914); assay: Kinome profiling PAK3; settings: read-out: Inhibitory activity PAK3; for inhibition at 0.1 µM: 100 nM
Experimental: as §1

SGK2 = target: T2, SGK2 (Homo sapiens, UniProt Q9HBY8); assay: Kinome profiling SGK2; settings: read-out: Inhibitory activity SGK2; for inhibition at 0.1 µM: 100 nM
T2 sequence (Q9HBY8 1-367): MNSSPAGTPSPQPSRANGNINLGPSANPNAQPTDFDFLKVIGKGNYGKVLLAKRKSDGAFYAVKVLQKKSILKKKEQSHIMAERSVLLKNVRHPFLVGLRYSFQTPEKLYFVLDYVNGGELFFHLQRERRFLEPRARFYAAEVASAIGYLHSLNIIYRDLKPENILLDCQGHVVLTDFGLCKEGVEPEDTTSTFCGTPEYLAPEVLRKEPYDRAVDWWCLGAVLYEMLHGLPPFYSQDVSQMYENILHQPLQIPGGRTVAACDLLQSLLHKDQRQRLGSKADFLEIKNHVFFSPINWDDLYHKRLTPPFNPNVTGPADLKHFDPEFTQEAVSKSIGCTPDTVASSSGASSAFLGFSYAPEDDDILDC
Experimental: as §1

MRCK-α = MRCK-α (Homo sapiens, UniProt Q5VT25); assay: Kinome profiling MRCK-α; settings: read-out: Inhibitory activity MRCK-α; for inhibition at 0.1 µM: 100 nM
Experimental: as §1

SGK1 = target: T3, SGK1 (Homo sapiens, UniProt O00141); assay: Kinome profiling SGK1; settings: read-out: Inhibitory activity SGK1; for inhibition at 0.1 µM: 100 nM
T3 sequence (O00141 1-431): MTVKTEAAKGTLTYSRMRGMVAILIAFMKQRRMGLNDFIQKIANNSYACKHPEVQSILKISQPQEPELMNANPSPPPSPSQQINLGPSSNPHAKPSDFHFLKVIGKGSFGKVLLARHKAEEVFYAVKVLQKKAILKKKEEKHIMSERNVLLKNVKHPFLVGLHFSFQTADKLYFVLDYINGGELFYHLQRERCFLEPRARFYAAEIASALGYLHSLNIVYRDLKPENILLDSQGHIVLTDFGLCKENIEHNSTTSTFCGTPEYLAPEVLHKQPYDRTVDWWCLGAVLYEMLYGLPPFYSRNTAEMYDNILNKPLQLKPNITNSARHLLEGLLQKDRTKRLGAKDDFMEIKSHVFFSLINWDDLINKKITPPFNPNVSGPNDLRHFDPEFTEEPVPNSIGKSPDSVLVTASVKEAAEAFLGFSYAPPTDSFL
Experimental: as §1

CAMK2δ = CAMK2δ (Homo sapiens, UniProt Q13557); assay: Kinome profiling CAMK2δ; settings: read-out: Inhibitory activity CAMK2δ; for inhibition at 0.1 µM: 100 nM
Experimental: as §1

TIE2, sequence (Q02763 23-1124): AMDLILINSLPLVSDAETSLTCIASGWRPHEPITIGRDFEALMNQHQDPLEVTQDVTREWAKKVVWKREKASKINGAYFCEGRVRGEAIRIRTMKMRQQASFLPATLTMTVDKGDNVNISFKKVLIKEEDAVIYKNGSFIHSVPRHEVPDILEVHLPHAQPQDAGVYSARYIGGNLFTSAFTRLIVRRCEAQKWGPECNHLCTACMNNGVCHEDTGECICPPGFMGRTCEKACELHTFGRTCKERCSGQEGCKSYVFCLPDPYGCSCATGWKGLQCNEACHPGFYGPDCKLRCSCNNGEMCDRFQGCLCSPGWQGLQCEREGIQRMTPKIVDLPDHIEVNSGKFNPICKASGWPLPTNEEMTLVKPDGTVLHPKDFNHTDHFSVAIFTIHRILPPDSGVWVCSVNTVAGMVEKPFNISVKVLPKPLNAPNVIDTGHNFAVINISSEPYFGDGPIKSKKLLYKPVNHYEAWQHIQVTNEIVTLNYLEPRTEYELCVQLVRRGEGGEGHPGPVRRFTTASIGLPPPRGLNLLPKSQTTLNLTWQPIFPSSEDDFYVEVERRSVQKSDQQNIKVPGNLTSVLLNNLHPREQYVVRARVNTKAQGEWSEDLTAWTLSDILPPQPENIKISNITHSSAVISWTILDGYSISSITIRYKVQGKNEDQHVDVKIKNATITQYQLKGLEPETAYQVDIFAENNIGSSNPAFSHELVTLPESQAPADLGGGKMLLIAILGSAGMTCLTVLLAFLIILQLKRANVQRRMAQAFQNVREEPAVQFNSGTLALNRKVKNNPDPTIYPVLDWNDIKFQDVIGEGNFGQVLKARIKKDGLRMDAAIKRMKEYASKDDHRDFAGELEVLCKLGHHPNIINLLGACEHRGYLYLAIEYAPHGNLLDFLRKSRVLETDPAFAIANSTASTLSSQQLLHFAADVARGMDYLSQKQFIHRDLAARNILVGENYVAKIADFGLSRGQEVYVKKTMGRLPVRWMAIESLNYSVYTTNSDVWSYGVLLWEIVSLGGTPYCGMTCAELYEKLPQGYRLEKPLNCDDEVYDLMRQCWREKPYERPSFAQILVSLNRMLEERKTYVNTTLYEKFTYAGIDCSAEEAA
BLK, sequence (P51451 whole entry): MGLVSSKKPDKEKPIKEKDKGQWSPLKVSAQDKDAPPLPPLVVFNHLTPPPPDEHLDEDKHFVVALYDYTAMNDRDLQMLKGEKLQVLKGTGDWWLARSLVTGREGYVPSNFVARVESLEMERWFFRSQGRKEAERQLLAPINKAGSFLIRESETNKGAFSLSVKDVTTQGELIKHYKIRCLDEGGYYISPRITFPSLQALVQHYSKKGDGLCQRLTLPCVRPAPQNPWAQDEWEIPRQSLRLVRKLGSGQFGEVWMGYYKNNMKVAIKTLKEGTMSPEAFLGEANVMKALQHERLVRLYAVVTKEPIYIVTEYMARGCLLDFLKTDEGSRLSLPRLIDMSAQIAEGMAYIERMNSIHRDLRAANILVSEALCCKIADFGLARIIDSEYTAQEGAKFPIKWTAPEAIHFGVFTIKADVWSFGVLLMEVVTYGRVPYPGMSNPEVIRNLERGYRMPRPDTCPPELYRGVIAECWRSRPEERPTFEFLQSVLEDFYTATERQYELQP
EGFR, sequence (P00533 25-1210): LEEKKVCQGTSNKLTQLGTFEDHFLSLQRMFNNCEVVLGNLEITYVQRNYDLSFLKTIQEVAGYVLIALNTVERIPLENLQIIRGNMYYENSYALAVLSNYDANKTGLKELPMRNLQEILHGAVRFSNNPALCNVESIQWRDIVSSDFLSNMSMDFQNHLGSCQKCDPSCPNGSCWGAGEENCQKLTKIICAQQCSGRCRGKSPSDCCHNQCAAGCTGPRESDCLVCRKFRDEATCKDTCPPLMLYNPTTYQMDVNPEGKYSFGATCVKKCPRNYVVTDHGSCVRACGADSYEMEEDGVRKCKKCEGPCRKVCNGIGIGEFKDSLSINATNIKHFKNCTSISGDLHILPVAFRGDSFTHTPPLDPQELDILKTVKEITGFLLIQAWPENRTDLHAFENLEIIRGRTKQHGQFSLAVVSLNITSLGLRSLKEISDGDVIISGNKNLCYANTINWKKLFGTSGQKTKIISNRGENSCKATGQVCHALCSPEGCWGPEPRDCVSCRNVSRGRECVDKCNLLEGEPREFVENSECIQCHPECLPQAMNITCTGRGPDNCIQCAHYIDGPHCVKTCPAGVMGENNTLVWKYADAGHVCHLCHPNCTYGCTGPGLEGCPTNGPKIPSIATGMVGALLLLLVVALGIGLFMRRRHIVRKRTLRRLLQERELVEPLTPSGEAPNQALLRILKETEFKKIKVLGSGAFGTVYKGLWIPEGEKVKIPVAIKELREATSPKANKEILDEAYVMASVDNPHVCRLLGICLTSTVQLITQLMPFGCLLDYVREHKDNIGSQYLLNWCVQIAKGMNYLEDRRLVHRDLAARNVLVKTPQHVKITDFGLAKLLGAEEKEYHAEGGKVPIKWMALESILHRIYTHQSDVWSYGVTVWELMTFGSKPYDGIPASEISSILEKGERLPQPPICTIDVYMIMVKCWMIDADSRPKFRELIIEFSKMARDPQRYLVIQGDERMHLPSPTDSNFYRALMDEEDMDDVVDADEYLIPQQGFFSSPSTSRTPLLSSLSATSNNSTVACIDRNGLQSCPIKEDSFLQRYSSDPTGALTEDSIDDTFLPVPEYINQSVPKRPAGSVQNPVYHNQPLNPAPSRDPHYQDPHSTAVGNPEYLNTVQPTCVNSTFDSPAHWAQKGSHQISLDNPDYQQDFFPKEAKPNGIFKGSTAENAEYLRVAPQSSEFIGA
PAK3, sequence (O75914 whole entry): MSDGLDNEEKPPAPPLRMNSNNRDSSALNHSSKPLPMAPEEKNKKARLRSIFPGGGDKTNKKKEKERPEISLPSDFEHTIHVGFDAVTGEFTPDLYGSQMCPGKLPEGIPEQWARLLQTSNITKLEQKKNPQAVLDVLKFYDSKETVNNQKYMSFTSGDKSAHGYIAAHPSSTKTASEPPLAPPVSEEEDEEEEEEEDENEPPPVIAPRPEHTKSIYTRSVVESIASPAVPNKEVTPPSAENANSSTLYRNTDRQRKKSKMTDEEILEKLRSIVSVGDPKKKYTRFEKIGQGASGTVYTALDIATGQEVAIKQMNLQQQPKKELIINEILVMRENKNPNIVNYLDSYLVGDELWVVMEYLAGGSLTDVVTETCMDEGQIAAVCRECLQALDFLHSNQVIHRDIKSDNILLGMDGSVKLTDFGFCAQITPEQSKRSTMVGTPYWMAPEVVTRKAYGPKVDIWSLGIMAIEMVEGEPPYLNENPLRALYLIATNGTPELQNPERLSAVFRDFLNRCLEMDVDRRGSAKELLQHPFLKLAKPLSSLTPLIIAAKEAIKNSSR
MRCK-α, sequence (Q5VT25 whole entry): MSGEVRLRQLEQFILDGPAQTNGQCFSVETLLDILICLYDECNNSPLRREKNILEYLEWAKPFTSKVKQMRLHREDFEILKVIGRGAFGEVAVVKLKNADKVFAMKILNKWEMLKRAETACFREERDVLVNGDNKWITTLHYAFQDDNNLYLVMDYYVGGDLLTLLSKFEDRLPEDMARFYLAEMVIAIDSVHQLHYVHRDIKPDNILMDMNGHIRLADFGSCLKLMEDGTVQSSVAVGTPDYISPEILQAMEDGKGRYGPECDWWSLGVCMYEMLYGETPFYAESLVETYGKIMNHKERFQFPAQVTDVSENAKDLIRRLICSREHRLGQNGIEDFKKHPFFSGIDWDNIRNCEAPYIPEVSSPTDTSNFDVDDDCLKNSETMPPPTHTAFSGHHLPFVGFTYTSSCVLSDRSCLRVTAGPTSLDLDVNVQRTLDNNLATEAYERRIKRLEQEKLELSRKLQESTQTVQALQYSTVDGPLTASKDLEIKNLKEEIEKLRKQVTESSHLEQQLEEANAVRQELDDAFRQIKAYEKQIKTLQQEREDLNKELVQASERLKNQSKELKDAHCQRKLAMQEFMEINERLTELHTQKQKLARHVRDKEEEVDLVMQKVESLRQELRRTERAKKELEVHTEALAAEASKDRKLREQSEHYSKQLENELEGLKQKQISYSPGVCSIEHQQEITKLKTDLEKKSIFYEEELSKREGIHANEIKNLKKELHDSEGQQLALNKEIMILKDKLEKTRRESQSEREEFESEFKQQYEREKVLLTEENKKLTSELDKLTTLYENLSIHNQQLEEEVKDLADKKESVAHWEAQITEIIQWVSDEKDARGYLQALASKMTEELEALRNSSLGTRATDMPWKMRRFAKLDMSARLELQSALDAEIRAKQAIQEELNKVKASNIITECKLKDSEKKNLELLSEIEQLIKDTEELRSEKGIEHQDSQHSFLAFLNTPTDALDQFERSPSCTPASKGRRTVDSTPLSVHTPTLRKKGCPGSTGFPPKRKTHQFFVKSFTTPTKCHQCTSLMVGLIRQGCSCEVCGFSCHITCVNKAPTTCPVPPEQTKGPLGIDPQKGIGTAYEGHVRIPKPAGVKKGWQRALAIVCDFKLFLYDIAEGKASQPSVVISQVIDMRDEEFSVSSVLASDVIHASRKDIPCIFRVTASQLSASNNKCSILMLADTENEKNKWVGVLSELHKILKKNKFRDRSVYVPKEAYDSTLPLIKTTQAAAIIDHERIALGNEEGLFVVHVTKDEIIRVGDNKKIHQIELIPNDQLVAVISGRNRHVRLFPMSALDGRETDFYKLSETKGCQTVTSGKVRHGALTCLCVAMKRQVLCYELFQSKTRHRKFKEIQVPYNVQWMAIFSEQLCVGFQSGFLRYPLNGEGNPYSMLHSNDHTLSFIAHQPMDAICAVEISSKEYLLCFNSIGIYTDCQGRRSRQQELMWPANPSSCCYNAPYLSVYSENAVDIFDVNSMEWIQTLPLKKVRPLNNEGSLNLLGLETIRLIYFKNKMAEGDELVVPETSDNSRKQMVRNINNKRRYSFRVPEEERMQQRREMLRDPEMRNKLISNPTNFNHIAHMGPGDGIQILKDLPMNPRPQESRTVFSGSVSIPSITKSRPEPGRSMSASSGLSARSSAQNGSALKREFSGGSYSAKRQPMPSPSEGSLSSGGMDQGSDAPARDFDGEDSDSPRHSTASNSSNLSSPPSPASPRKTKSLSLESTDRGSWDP

SMILES	inhibition at 0.1 µM (TRKB) [%]	inhibition at 1 µM (TRKB) [%]	inhibition at 0.1 µM (HIPK1) [%]	inhibition at 1 µM (HIPK1) [%]	inhibition at 0.1 µM (BLK) [%]	inhibition at 1 µM (BLK) [%]	inhibition at 0.1 µM (PAR-1Bα) [%]	inhibition at 1 µM (PAR-1Bα) [%]	inhibition at 0.1 µM (TRKA) [%]	inhibition at 1 µM (TRKA) [%]	inhibition at 0.1 µM (EGFR) [%]	inhibition at 1 µM (EGFR) [%]	inhibition at 0.1 µM (TIE2) [%]	inhibition at 1 µM (TIE2) [%]	inhibition at 0.1 µM (MARK3) [%]	inhibition at 1 µM (MARK3) [%]	inhibition at 0.1 µM (PYK2) [%]	inhibition at 1 µM (PYK2) [%]	inhibition at 0.1 µM (DYRK2) [%]	inhibition at 1 µM (DYRK2) [%]	other results
COc1cc(-c2cc(-c3ccc(N4CCNCC4)cc3)cnc2N)cc(OC)c1OC [Compound 15, 5-(4-(piperazin-1-yl)phenyl)-3-(3,4,5-trimethoxyphenyl)pyridin-2-amine]	2	3	1	2	16	64	1	19	5	5	8	37	1	6	4	48	10	14	2	0	inhibition at 0.1 µM (PAK3): 1%; inhibition at 1 µM (PAK3): 1%; inhibition at 0.1 µM (SGK2): 2%; inhibition at 1 µM (SGK2): 3%; inhibition at 0.1 µM (MRCK-α): 6%; inhibition at 1 µM (MRCK-α): 50%; inhibition at 0.1 µM (SGK1): 3%; inhibition at 1 µM (SGK1): 1%; inhibition at 0.1 µM (CAMK2δ): 1%; inhibition at 1 µM (CAMK2δ): 3%
COc1cc(-c2cc(-c3ccc(N4CCNCC4)cc3)cnc2C)cc(OC)c1OC [Compound 10, 1-(4-(6-methyl-5-(3,4,5-trimethoxyphenyl)pyridin-3-yl)phenyl)piperazine]	3	3	1	1	1	12	2	4	2	1	3	16	1	0	0	3	1	5	2	1	inhibition at 0.1 µM (PAK3): 2%; inhibition at 1 µM (PAK3): 2%; inhibition at 0.1 µM (SGK2): 1%; inhibition at 1 µM (SGK2): -1%; inhibition at 0.1 µM (MRCK-α): -1%; inhibition at 1 µM (MRCK-α): 2%; inhibition at 0.1 µM (SGK1): 2%; inhibition at 1 µM (SGK1): 1%; inhibition at 0.1 µM (CAMK2δ): 1%; inhibition at 1 µM (CAMK2δ): 1%

Source: US20170190705A1, “Compositions and Methods for Inhibiting BMP” (THE BRIGHAM AND WOMAN'S HOSPITAL, INC., priority 2014, published 2017)
